Among the data in ChEMBL document CHEMBL1147438, “Discovery of novel aspartyl ketone dipeptides as potent and selective caspase-3 inhibitors” (Bioorg Med Chem Lett, 2004) are IC50 values, retold here.

pIC50: −log10 of the molar value.

For one test, the target named is T1, Caspase-3 (Homo sapiens, UniProt P42574).
T1 sequence (P42574 whole entry): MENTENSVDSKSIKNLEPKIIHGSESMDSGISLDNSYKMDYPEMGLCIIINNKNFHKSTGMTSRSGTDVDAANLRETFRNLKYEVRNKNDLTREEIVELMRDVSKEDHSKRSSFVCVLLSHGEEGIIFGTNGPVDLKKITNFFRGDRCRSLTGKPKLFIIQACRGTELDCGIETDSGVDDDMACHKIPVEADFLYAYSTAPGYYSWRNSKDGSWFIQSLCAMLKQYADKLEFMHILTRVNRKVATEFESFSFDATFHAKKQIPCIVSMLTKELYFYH
Description: Inhibitory activity against caspase-3.

The target in another test is T2, Caspase-1 (Homo sapiens, UniProt P29466).
T2 sequence (P29466 whole entry): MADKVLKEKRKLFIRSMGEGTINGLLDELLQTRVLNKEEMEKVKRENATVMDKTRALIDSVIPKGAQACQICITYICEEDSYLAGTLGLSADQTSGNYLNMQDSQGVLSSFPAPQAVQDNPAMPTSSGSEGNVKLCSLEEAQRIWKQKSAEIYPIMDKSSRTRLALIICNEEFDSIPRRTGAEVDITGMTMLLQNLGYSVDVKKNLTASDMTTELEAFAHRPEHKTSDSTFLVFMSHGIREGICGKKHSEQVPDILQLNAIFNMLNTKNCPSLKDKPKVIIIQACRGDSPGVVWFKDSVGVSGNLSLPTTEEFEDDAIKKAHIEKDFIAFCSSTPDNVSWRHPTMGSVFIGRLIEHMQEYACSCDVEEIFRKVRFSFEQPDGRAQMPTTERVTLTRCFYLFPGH
Description: Inhibitory activity against caspase-1.

The target of another test is Caspase-8 (Homo sapiens, UniProt Q14790). As to the kind of experiment: Inhibitory activity against caspase-8.
Chain of Caspase-8 (Q14790 217-374 limits assumed): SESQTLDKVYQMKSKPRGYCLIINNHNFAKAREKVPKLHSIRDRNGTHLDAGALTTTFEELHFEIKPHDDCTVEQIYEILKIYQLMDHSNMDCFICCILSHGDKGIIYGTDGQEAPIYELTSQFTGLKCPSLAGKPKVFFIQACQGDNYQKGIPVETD
Chain of Caspase-8 (Q14790 385-479 limits assumed): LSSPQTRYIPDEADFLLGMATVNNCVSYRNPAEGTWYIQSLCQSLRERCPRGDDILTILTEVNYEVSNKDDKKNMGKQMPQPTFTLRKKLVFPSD
The next test addresses T3, Caspase-7 (Homo sapiens, UniProt P55210).
T3 sequence (P55210 whole entry): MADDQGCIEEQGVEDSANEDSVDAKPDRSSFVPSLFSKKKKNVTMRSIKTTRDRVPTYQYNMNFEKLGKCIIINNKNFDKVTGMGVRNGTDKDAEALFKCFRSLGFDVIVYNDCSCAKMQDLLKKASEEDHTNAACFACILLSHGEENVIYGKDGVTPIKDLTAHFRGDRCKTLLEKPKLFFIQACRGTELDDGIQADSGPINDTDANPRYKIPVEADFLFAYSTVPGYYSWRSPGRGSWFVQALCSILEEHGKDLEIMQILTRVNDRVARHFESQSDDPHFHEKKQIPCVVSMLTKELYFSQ
As to the kind of experiment: Inhibitory activity against caspase-7.

For a further test, the system named is NT2. As to the kind of experiment: Inhibitory activity against NT2 cells. Type of test: functional, cell-based. The conditions noted are these: Homo sapiens.

For orientation: pIC50 means the negative decadic logarithm of the IC50, by convention in mol/L. Lower therefore signals a high IC50. With `COc1ccccc1CC(=O)N[C@H](C(=O)N[C@@H](CC(=O)O)C(=O)CSCc1ccccc1)C(C)C`, the negative-log IC50 (pIC50) against Caspase-3 was 6.51; against Caspase-1, 4.55; against Caspase-8, 4.81; at Caspase-7, 5.57.
Take `COc1ccc(OC)c(CC(=O)N[C@H](C(=O)N[C@@H](CC(=O)O)C(=O)CSCc2ccccc2)C(C)C)c1`: the pIC50 was 7.32 at Caspase-3; 5.00 in the test on NT2; 5.22 at Caspase-1; 5.18 on Caspase-8; 5.49 against Caspase-7.
`COc1ccc(S(C)(=O)=O)cc1CC(=O)N[C@H](C(=O)N[C@@H](CC(=O)O)C(=O)CSCc1c(F)cccc1Cl)C(C)C`: the pIC50 at Caspase-3 is 8.30; in the test on NT2 it was 6.00; on Caspase-1 it was 5.80; at Caspase-8, 6.31; against Caspase-7, 6.92.
With `CC(C)[C@H](NC(=O)c1cc(Br)cc(Br)c1)C(=O)N[C@@H](CC(=O)O)C(=O)CSCc1ccccc1`, the negative-log IC50 (pIC50) against Caspase-3 is 6.85; in the test with NT2, 4.20; against Caspase-1, 6.07; at Caspase-8, 5.06; against Caspase-7, 5.82.
For `COc1ccc(C(C)=O)cc1CC(=O)N[C@H](C(=O)N[C@@H](CC(=O)O)C(=O)CSCc1ccccc1)C(C)C` the same measures were 8.00, 5.70, 5.23, 5.54 and 6.89.
Turning to `COc1ccc(OC)c(CC(=O)N[C@H](C(=O)N[C@@H](CC(=O)O)C(=O)CSCc2c(F)cccc2Cl)C(C)C)c1`, the negative-log IC50 (pIC50) against Caspase-3 is 7.14; with NT2, 5.05; on Caspase-1, 5.30; on Caspase-8, 5.62; at Caspase-7, 5.60.
The corresponding values for `CCOc1ccc(OCC(=O)O)cc1CC(=O)N[C@H](C(=O)N[C@@H](CC(=O)O)C(=O)CSCc1c(F)cccc1Cl)C(C)C` are 8.30, 5.30, 5.42, 6.09 and 6.44.
For `CCOc1ccc(OCC(=O)OC(C)C)cc1CC(=O)N[C@H](C(=O)N[C@@H](CC(=O)O)C(=O)CSCc1c(F)cccc1Cl)C(C)C`, the pIC50 was 7.03 at Caspase-3; 6.52 in the test on NT2; 5.38 against Caspase-1; 5.20 against Caspase-8; 5.64 against Caspase-7.
For the compound `CC(C)[C@H](NC(=O)c1cc2cc(F)ccc2[nH]1)C(=O)N[C@@H](CC(=O)O)C(=O)CSCc1ccccc1`, the pIC50 against Caspase-3 is 7.08; in the test with NT2 it was 4.26; on Caspase-1, 5.59; against Caspase-8 it was 5.48; against Caspase-7, 5.85.
Regarding `COc1cccc(CC(=O)N[C@H](C(=O)N[C@@H](CC(=O)O)C(=O)CSCc2ccccc2)C(C)C)c1`, the pIC50 against Caspase-3 was 6.68; in the test with NT2 it was 4.22; on Caspase-1, 4.85; on Caspase-8 it was 4.85; against Caspase-7, 5.51.
Take `CC(C)[C@H](NC(=O)[C@H](C)NC(=O)[C@H](CC(=O)O)NC(=O)c1ccccc1)C(=O)N[C@@H](CC(=O)O)C(=O)CCCc1ccccc1`: the negative logarithm of the IC50 (pIC50) at Caspase-3 was 8.74; in the test on NT2, 4.85; against Caspase-1 it was 5.78; against Caspase-8, 5.82; on Caspase-7, 8.08.
For `CCOc1ccc(OCC(=O)OC)cc1CC(=O)N[C@H](C(=O)N[C@@H](CC(=O)O)C(=O)CSCc1c(F)cccc1Cl)C(C)C` the same measures were 7.28, 6.15, 5.19, 5.03 and 5.77.
For `COc1ccc(OC)c(CC(=O)N[C@H](C(=O)N[C@@H](CC(=O)O)C(=O)CSCC2CCCCC2)C(C)C)c1` the same measures were 7.20, 4.72, 5.74, 5.70 and less than 5.00.
For `CC(C)[C@H](NC(=O)Cc1ccccc1)C(=O)N[C@@H](CC(=O)O)C(=O)CSCc1ccccc1`, the pIC50 at Caspase-3 is 6.12; against Caspase-1, 4.66; at Caspase-8, 4.65; on Caspase-7 it was 5.08.
On to `COc1ccc(OC)c(CC(=O)N[C@H](C(=O)N[C@@H](CC(=O)O)C(=O)CSCC(C)C)C(C)C)c1`, for which the pIC50 was 6.89 against Caspase-3; 4.49 with NT2; 5.59 against Caspase-1; 5.11 against Caspase-8; 5.74 at Caspase-7.
Turning to `CC(=O)N[C@@H](CC(=O)O)C(=O)N[C@@H](CCC(=O)O)C(=O)N[C@H](C(=O)N[C@H](C=O)CC(=O)O)C(C)C`, the pIC50 is less than 4.00 in the test on NT2, 6.72 at Caspase-1, 6.89 at Caspase-8 and 7.06 on Caspase-7.
The corresponding values for `CCOc1ccc(/C=C/C(=O)OC)cc1CC(=O)N[C@H](C(=O)N[C@@H](CC(=O)O)C(=O)CSCc1c(F)cccc1Cl)C(C)C` are 6.22, 5.74, 5.41 and 7.62.
Take `COc1ccc(Br)cc1CC(=O)N[C@H](C(=O)N[C@@H](CC(=O)O)C(=O)CSCc1ccccc1)C(C)C`: the negative-log IC50 (pIC50) was 7.22 against Caspase-3; 5.05 in the test on NT2; 5.51 on Caspase-1; 5.64 at Caspase-8; 5.51 on Caspase-7.
